Measured values published in patent publication US20060194883A1, “Mmp expression inhibitor” (EISAI CO., LTD, priority 2003, published 2006).
Values belong to the compound of their own block, whether it stands above or below them.

Experiments:
Ets-1 = experiment: gene expression with TPA induction, RT-PCR; format: cell-based; conditions: HepG2
Procedure: (§1) MMP and Ets-1, the expression of which is inhibited by menatetrenone, are known to be genes that are induced by 12-O-tetradecanoylphorbol-13-acetate (TPA) as well as uPA (urokinase plasminogen activator) and the like. In order to discover whether menatetrenone controls expression of genes activated by TPA, TPA was added to HepG2 cultured hepatic cancer cells at a concentration of 20 nM, menatetrenone was then added thereto, and RT-PCR and Western blot were performed to investigate whether expression of the aforementioned gene expression of which was induced by TPA was affected. […] On the other hand, the uPA receptor uPAR and the uPA inhibitor PAI were not affected.

MMP-1 [1] = experiment: gene expression with TPA induction, RT-PCR; format: cell-based; conditions: HepG2
Procedure: as §1

MMP-3 [2] = experiment: gene expression with TPA induction, RT-PCR; format: cell-based; conditions: HepG2
Procedure: as §1

MMP-7 [3] = experiment: gene expression with TPA induction, RT-PCR; format: cell-based; conditions: HepG2
Procedure: as §1

[4] = tested on: uPA (urokinase plasminogen activator); experiment: gene expression with TPA induction, RT-PCR; format: cell-based; conditions: HepG2
Procedure: as §1

uPA inhibitor PAI = experiment: gene expression with TPA induction, RT-PCR; format: cell-based; conditions: HepG2; 20 nM of TPA alone
Procedure: as §1

uPA receptor uPAR = experiment: gene expression with TPA induction, RT-PCR; format: cell-based; conditions: HepG2; 20 nM of TPA alone
Procedure: as §1

[5] = tested on: HLE hepatic cancer cell line; experiment: cell proliferation by WST assay; format: cell-based; conditions: 10^−6 to 10^−4 M, 48 hours, vs control without menatetrenone
Procedure: (§2) Menatetrenone was added at concentrations of 0 M, 10^−6 M, 10^−5 M and 10^−4 M to HepG2, Huh7, Hep3B and HLE hepatic cancer cell lines, and cell proliferation was studied by WST assay after 48 hours.

[6] = tested on: Hep3B hepatic cancer cell line; experiment: cell proliferation by WST assay; format: cell-based; conditions: 10^−6 to 10^−4 M, 48 hours, vs control without menatetrenone
Procedure: as §2

[7] = tested on: HepG2 hepatic cancer cell line; experiment: cell proliferation by WST assay; format: cell-based; conditions: 10^−6 to 10^−4 M, 48 hours, vs control without menatetrenone
Procedure: as §2

[8] = tested on: Huh7 hepatic cancer cell line; experiment: cell proliferation by WST assay; format: cell-based; conditions: 10^−6 to 10^−4 M, 48 hours, vs control without menatetrenone
Procedure: as §2

p21 = experiment: CDK inhibitor expression by RT-PCR and Western blot in hepatic cancer cells; format: cell-based; conditions: 10^−6 to 10^−4 M
Procedure: (§3) To investigate the mechanism of inhibition of cell proliferation, genes involved in promoting the cell cycle were focused on, and changes caused by addition of menatetrenone in the amount of expression of CDK inhibitors p21, p27 and p16 which inhibit cyclin dependent kinase (CDK), an enzyme which promotes the cell cycle, were analyzed by the RT-PCR and Western blot methods. In this test, menatetrenone was added at concentrations of 0 M, 10^−6 M, 10^−5 M and 10^−4 M to HepG2, Huh7, Hep3B and HLE hepatic cancer cell lines, RNA was collected after 48 hours, and 1 μg of total RNA was subjected to RT-PCR to investigate expression of p21, p27 and p16. RT-PCR was performed on GAPDH (glyceraldehyde 3-phosphate dehydrogenase) as a control. In this test, menatetrenone was added at concentrations of 0 M, 10^−6 M, 10^−5 M and 10^−4 M to HepG2, Huh7, Hep3B and HLE hepatic cancer cell lines, proteins were extracted from the various cells, subjected to SDS-PAGE electrophoresis, blotted on PVP membranes and then incubated with p21 and p27 antibodies, and p21 and p27 protein expression was investigated by ECL.

p27 = experiment: as above; format: cell-based; conditions: 10^−6 to 10^−4 M
Procedure: as §3

p16 = experiment: CDK inhibitor expression by RT-PCR in hepatic cancer cells; format: cell-based; conditions: 10^−6 to 10^−4 M
Procedure: as §3, with “control.” for “control. In this test, menatetrenone was added at concentrations of 0 M, 10^−6 M, 10^−5 M and 10^−4 M to HepG2, Huh7, Hep3B and HLE hepatic cancer cell lines, proteins were extracted from the various cells, subjected to SDS-PAGE electrophoresis, blotted on PVP membranes and then incubated with p21 and p27 antibodies, and p21 and p27 protein expression was investigated by ECL.”

HLE hepatic cancer cells = experiment: cell cycle analysis by flow cytometry (FACS); format: cell-based; conditions: 10^−6 to 10^−4 M, 48 hours
Procedure: (§4) To investigate the effects of menatetrenone on the cell cycles of cancer cells, distributions according to DNA amount in hepatic cancer cells to which menatetrenone had been added were analyzed by flow cytometry (FACS). In this test, menatetrenone was added at concentrations of 0 M, 10^−6 M, 10^−5 M and 10^−4 m to HepG2, Huh7, Hep3B and HLE hepatic cancer cells, and changes in the cell cycles were observed by FACS 48 hours later.

[9] = tested on: Hep3B hepatic cancer cells; experiment: cell cycle analysis by flow cytometry (FACS); format: cell-based; conditions: 10^−6 to 10^−4 M, 48 hours
Procedure: as §4

[10] = tested on: HepG2 hepatic cancer cells; experiment: cell cycle analysis by flow cytometry (FACS); format: cell-based; conditions: 10^−6 to 10^−4 M, 48 hours
Procedure: as §4

[11] = tested on: Huh7 hepatic cancer cells; experiment: cell cycle analysis by flow cytometry (FACS); format: cell-based; conditions: 10^−6 to 10^−4 M, 48 hours
Procedure: as §4

[12] = tested on: hepatic cancer cells (HepG2); experiment: Matrigel invasion test (double chamber); format: cell-based; conditions: 10^−6 to 10^−4 M, 24 hours, NIH3T3 feeder
Procedure: To investigate the effect of menatetrenone in inhibiting invasion and metastasis of cancer cells, menatetrenone was added to hepatic cancer cells (HepG2) at concentrations of 0 M, 10^−6 M, 10^−5 M and 10^−4 M, and ability of the cancer cells to invade Matrigel was measured. In this test, cancer cells were spread on Matrigel which had been coated on the upper chamber of a double chamber, menatetrenone was added thereto. NIH3T3 cells were spread on the lower chamber as a feeder. The number of cells that had passed through the Matrigel and migrated to the bottom of the upper chamber after 24 hours was observed microscopically.

GAPDH = experiment: RT-PCR of invasion-related factors in hepatic cancer cells; format: cell-based; conditions: hepatic cancer cells (HepG2, Hep3B, Huh7)
Procedure: (§5) Test was performed by RT-PCR to investigate MMP expression. This test was to investigate expression of various MMPs (MMP-1, MMP-2, MMP-3, MMP-7, MMP-9 and MMP-14 (MT1-MMP)) and of transcription factor Ets-1 that affect MMP expression and the extracellular matrix receptor β1 integrin when menatetrenone was added to various hepatic cancer cells (HepG2, Hep3B, Huh7).

MMP-14 (MT1-MMP) = experiment: as above; format: cell-based; conditions: hepatic cancer cells (HepG2, Hep3B, Huh7)
Procedure: as §5

MMP-1 [13] = experiment: as above; format: cell-based; conditions: hepatic cancer cells (HepG2, Hep3B, Huh7)
Procedure: as §5

MMP-3 [14] = experiment: as above; format: cell-based; conditions: hepatic cancer cells (HepG2, Hep3B, Huh7)
Procedure: as §5

MMP-7 [15] = experiment: as above; format: cell-based; conditions: hepatic cancer cells (HepG2, Hep3B, Huh7)
Procedure: as §5

[16] = tested on: transcription factor Ets-1; experiment: as above; format: cell-based; conditions: hepatic cancer cells (HepG2, Hep3B, Huh7)
Procedure: as §5

β1 integrin = experiment: as above; format: cell-based; conditions: hepatic cancer cells (HepG2, Hep3B, Huh7)
Procedure: as §5

MMP-1 [17] = experiment: Western blot of MMP protein expression in hepatic cancer cells; format: cell-based; conditions: hepatic cancer cells (HepG2, Hep3B, Huh7)
Procedure: (§6) Testing was performed by Western blot to investigate MMP expression. In this test protein expressions of MMP-1 and MMP-3 were investigated when menatetrenone was added to various hepatic cancer cells (HepG2, Hep3B, Huh7).

MMP-3 [18] = experiment: as above; format: cell-based; conditions: hepatic cancer cells (HepG2, Hep3B, Huh7)
Procedure: as §6

AP-1 = experiment: gel shift assay of transcription factor binding activity; format: cell-based; conditions: HepG2 nuclear proteins after 24 hours; 32P-labeled DNA probe
Procedure: (§7) MMP have binding sites for transcription factors AP-1, Ets-1, Tcf/Lef and the like at common to their promoter regions and which are known to regulate MMP expression. Gel shift assay was performed to investigate whether the binding activity of transcription factors AP-1 and Tcf/Lef, which regulate MMP expression, is affected by addition of menatetrenone. In this test menatetrenone was added to HepG2 hepatic cancer cells, nuclear proteins were extracted after 24 hours and reacted with double-stranded DNA having binding sites for AP-1 and Tcf/Lef labeled with ^32P, and gel shift assay was performed. […] Reduction and shifting of the band was also seen with anti-c-fos antibodies (“S” in the Figure).

Tcf/Lef = experiment: as above; format: cell-based; conditions: HepG2 nuclear proteins after 24 hours; 32P-labeled DNA probe
Procedure: as §7

MMP-1 promoter = experiment: MMP gene promoter activity test (luciferase reporter); format: cell-based; conditions: Huh7 cells, 48 hours
Procedure: (§8) Next, promoter reporter genes for MMP-1, MMP-3 and MMP-7 were introduced into Huh7 hepatic cancer cells, and the effect of menatetrenone on the activity of these MMP promoters was investigated. The MMP-1, MMP-3 and MMP-7 promoter-luciferase reporter plasmids used were prepared by replacing the reporter gene part of the MMP promoter-CAT reporter plasmid reported in Ozaki I, Mizuta T, Zhang H, Yoshimura T, Kawazoe S, Eguchi Y, Yasutake T, Hisatomi A, Sakai T and Yamamoto K, “Induction of multiple matrix metalloproteinase genes in human hepatocellular carcinoma by hepatocyte growth factor via a transcription factor Ets-1,” Hepatol. Res. 27, 288-300. The various MMP-luciferase plasmids were introduced into Huh7 hepatic cancer cells using lipofectamine, menatetrenone was added at various concentrations, and after 48 hours the cells were collected and luciferase activity measured to investigate the effects of menatetrenone on MMP-1, MMP-3 and MMP-7 gene promoter activity.

MMP-3 promoter = experiment: as above; format: cell-based; conditions: Huh7 cells, 48 hours
Procedure: as §8

MMP-7 promoter = experiment: as above; format: cell-based; conditions: Huh7 cells, 48 hours
Procedure: as §8

MMP-1 [19] = experiment: gene expression with TPA induction, Western blot; format: cell-based; conditions: HepG2, 20 nM TPA then menatetrenone
Procedure: as §1

MMP-3 [20] = experiment: gene expression with TPA induction, Western blot; format: cell-based; conditions: HepG2, 20 nM TPA then menatetrenone
Procedure: as §1

[21] = cited from earlier work
[22] = cited from earlier work; remark: listed apart in the source

SMILES: CCCCCCCCCCCCCC(=O)O[C@@H]1[C@@H](C)[C@@]2(O)[C@@H](C=C(CO)C[C@]3(O)C(=O)C(C)=C[C@@H]23)[C@@H]2C(C)(C)[C@]12OC(C)=O [TPA, 12-O-tetradecanoylphorbol-13-acetate]
mRNA expression of Ets-1 (Ets-1; 20 nM of TPA alone): increased
mRNA expression of MMP-1 (MMP-1 [1]; 20 nM of TPA alone): increased
mRNA expression of MMP-3 (MMP-3 [2]; 20 nM of TPA alone): increased
mRNA expression of MMP-7 (MMP-7 [3]; 20 nM of TPA alone): increased
mRNA expression of uPA ([4]; 20 nM of TPA alone): increased
mRNA expression of PAI (uPA inhibitor PAI): not affected
mRNA expression of uPAR (uPA receptor uPAR): not affected

binding activity of AP-1 (AP-1): dose-dependently inhibited
binding activity of Tcf/Lef (Tcf/Lef): did not affect
MMP-1 promoter activity (MMP-1 promoter): dose-dependently inhibited
MMP-3 promoter activity (MMP-3 promoter): dose-dependently inhibited
MMP-7 promoter activity (MMP-7 promoter): dose-dependently inhibited
TPA-induced mRNA expression of uPA ([4]; 20 nM TPA then menatetrenone): dose-dependently inhibited
SMILES: CC(C)=CCC/C(C)=C/CC/C(C)=C/CC/C(C)=C/CC1=C(C)C(=O)c2ccccc2C1=O [menatetrenone, 2-methyl-3-tetraprenyl-1,4-naphthoquinone]
cell proliferation [5]: dose-dependently inhibited
cell proliferation [6]: dose-dependently inhibited
cell proliferation [7]: dose-dependently inhibited
cell proliferation [8]: dose-dependently inhibited
p21 expression (p21; Hep3B cells): slight increase
p21 mRNA expression (p21; HepG2 cells, 48 hours): increases
p21 expression (p21; Huh7 cells): no changes
p27 expression (p27; Hep3B cells): no change
p27 mRNA expression (p27; HepG2 cells, 48 hours): increases
p27 expression (p27; Huh7 cells): no changes
p16 expression (p16; Hep3B cells): slight increase
p16 expression (p16; Huh7 cells): no changes
G2-phase cells (HLE hepatic cancer cells): decreased
proportion of G1-phase cells (HLE hepatic cancer cells): increased dose-dependently
G2-phase cells [9]: decreased
proportion of G1-phase cells [9]: increased dose-dependently
G2-phase cells [10]: decreased
proportion of G1-phase cells [10]: increased dose-dependently
G2-phase cells [11]: decreased
proportion of G1-phase cells [11]: increased dose-dependently
ability of cancer cells to invade Matrigel [12]: dose-dependently inhibits
expression of GAPDH mRNA (GAPDH): no changes
expression of mRNA of MMP-14 (MMP-14 (MT1-MMP)): dose-dependently inhibited
expression of mRNA of MMP-1 (MMP-1 [13]): dose-dependently inhibited
expression of mRNA of MMP-3 (MMP-3 [14]): dose-dependently inhibited
expression of mRNA of MMP-7 (MMP-7 [15]): dose-dependently inhibited
expression of the transcription factor Ets-1 [16]: dose-dependently inhibited
expression of β1 integrin mRNA (β1 integrin): no changes
protein expression of MMP-1 (MMP-1 [17]): inhibited
protein expression of MMP-3 (MMP-3 [18]): inhibited
decrease of MMP-1 promoter activity (MMP-1 promoter): ~50%
decrease of MMP-7 promoter activity (MMP-7 promoter): ~50%
TPA-induced mRNA expression of Ets-1 (Ets-1; 20 nM TPA then menatetrenone): dose-dependently inhibited
TPA-induced mRNA expression of MMP-1 (MMP-1 [1]; 20 nM TPA then menatetrenone): dose-dependently inhibited
TPA-induced mRNA expression of MMP-3 (MMP-3 [2]; 20 nM TPA then menatetrenone): dose-dependently inhibited
TPA-induced mRNA expression of MMP-7 (MMP-7 [3]; 20 nM TPA then menatetrenone): dose-dependently inhibited
TPA-induced expression of MMP-1 at the protein level (MMP-1 [19]): dose-dependently inhibited
TPA-induced expression of MMP-3 at the protein level (MMP-3 [20]): dose-dependently inhibited
solubility in water [21]: dissolves very little
stability to light [22]: easily decomposed by light
